Like-named read-outs stand apart in the source and are kept apart here.
System: C. elegans
Assay: microbe, parasite or virus in culture
Details: Caenorhabditis elegans
[1] = 0 h, read-out: Percentage of motility inhibition 0 h, Table S2, C. elegans SS assay, 110 μM, 0 h, averages of 4 data points
[2] = 24 h, read-out: Percentage of motility inhibition 24 h, Table S2, C. elegans SS assay, 110 μM, 24 h, averages of 4 data points
[3] = 0 h, read-out: Percentage of motility inhibition 0 h
[4] = 24 h, read-out: Percentage of motility inhibition 24 h

Compound | inhibition at 110 µM [1] [%] | inhibition at 110 µM [2] [%] | other results
COC(=O)C1=CC[C@@]23CC[C@@H]([C@@](C)(/C=C/C=C(\C)C(=O)O)OC2=O)[C@@]3(O)CC1 [Pseudolaric Acid C] | 31 | 42 | 
O=c1ccc2cc3ccoc3cc2o1 [Psoralen] |  |  | inhibition at 110 µM [3]: 14%; inhibition at 110 µM [4]: 14%
CC(C)=C1CC[C@@H](C)CC1=O [Pulegone] | 6 | 5 | 
CN1CCCN=C1/C=C/c1cccs1 [Pyrantel pamoate, reference compound] |  |  | inhibition at 110 µM (0 h, read-out: Inhibition (%) 110 μM (0 h), C. elegans L4 motility, 110 μM, 0 h, mean ± SD of four experiments): 94%; inhibition at 110 µM (24 h, read-out: Inhibition (%) 110 μM (24 h), C. elegans L4 motility, 110 μM, 24 h, mean ± SD of four experiments): 18 ± 18%
NC(=O)c1cnccn1 [Pyrazinamide] | 4 | 13 | 
Cc1ncc(COP(=O)(O)O)c(C=O)c1O [Pyridoxal phosphate] | 11 | 4 | 
Cc1ncc(CO)c(CO)c1O [Pyridoxine] | 8 | 0 | 
CCc1nc(N)nc(N)c1-c1ccc(Cl)cc1 [Pyrimethamine] | 35 | 2 | 
O=Cc1ccc[nH]1 [Pyrrole‐2‐carboxaldehyde] | 0 | 6 | 
O=c1c(O)c(-c2ccc(O)c(O)c2)oc2cc(O)c(O)c(O)c12 [Quercetagetin] |  |  | inhibition at 110 µM [3]: 15%; inhibition at 110 µM [4]: 10%
O=c1c(O)c(-c2ccc(O)c(O)c2)oc2cc(O)cc(O)c12 [Quercetin] | 24 | 11 | 
O=c1c(O)c(-c2ccc(O)c(O)c2)oc2cc(O[C@@H]3O[C@H](CO)[C@@H](O)[C@H](O)[C@H]3O)cc(O)c12 [Quercimeritrin] | 0 | 3 | 
C[C@@H]1O[C@@H](Oc2c(-c3ccc(O)c(O)c3)oc3cc(O)cc(O)c3c2=O)[C@H](O)[C@H](O)[C@H]1O [Quercitrin] | 4 | 0 | 
CC1(C)CC[C@]2(C(=O)O)[C@H](O)C[C@]3(C)C(=CC[C@@H]4[C@@]5(C)CC[C@H](O)[C@@](C)(C=O)[C@@H]5CC[C@]43C)[C@@H]2C1 [Quillaic acid] | 14 | 16 | 
C=C[C@H]1C[N@@]2CC[C@H]1C[C@@H]2[C@@H](O)c1ccnc2ccc(OC)cc12 [Quinidine] | 23 | 3 | 
O=C(O)c1cccnc1C(=O)O [Quinolinic acid] | 0 | 0 | 
O=C(CBr)N1CC([N+](=O)[O-])([N+](=O)[O-])C1 [RRx‐001] | 19 | 6 | 
O=C(Nc1ccccc1F)N[C@H]1N=C(c2ccccc2)c2ccccc2NC1=O [RSV604] | 37 | 15 | 
O=C(Nc1ccc(Oc2ccc(Cl)cc2)c(Cl)c1)c1cc(I)cc(I)c1O [Rafoxanide] | 8 | 1 | 
C=C[C@]1(C)C[C@@H](OC(=O)CS[C@@H]2C[C@H]3CC[C@@H](C2)N3C)[C@]2(C)[C@H](C)CC[C@]3(CCC(=O)[C@H]32)[C@@H](C)[C@@H]1O [Retapamulin] | 27 | 9 | 

Compound | inhibition at 110 µM [1] [%] | inhibition at 110 µM [2] [%] | other results
CC1=C(/C=C/C(C)=C/C=C/C(C)=C/C(=O)O)C(C)(C)CCC1 [Retinoic acid] | 18 | 40 | 
CC(=O)OC/C=C(C)/C=C/C=C(C)/C=C/C1=C(C)CCCC1(C)C [Retinyl acetate] | 0 | 0 | 
O=c1c(O[C@@H]2OC[C@@H](O)[C@H](O)[C@H]2O)c(-c2ccc(O)c(O)c2)oc2cc(O)cc(O)c12 [Reynoutrin] | 0 | 7 | 
COc1cc(O)c2c(=O)c(O)c(-c3ccc(O)c(O)c3)oc2c1 [Rhamnetin] | 29 | 12 | 
CC[C@H]1CN2CC[C@]3(C(=O)Nc4ccccc43)[C@@H]2C[C@@H]1/C(=C\OC)C(=O)OC [Rhynchophylline] | 0 | 8 | 
Cc1cc2nc3c(=O)[nH]c(=O)nc-3n(C[C@H](O)[C@H](O)[C@H](O)CO)c2cc1C [Riboflavin] | 3 | 6 | 
CO[C@H]1/C=C/O[C@@]2(C)Oc3c(C)c(O)c4c(c3C2=O)C2=NC3(CCN(CC(C)C)CC3)NC2=C(NC(=O)/C(C)=C\C=C\[C@H](C)[C@H](O)[C@@H](C)[C@@H](O)[C@@H](C)[C@H](OC(C)=O)[C@@H]1C)C4=O [Rifabuti n] | 41 | 2 | 
CO[C@H]1/C=C/O[C@@]2(C)Oc3c(C)c(O)c4c(O)c(c(/C=N/N5CCN(C)CC5)c(O)c4c3C2=O)NC(=O)/C(C)=C\C=C\[C@H](C)[C@H](O)[C@@H](C)[C@@H](O)[C@@H](C)[C@H](OC(C)=O)[C@@H]1C [Rifampicin] | 13 | 4 | 
CO[C@H]1/C=C/O[C@@]2(C)Oc3c(C)c(O)c4c(O)c(c(/C=N/N5CCN(C6CCCC6)CC5)c(O)c4c3C2=O)NC(=O)/C(C)=C\C=C\[C@H](C)[C@H](O)[C@@H](C)[C@@H](O)[C@@H](C)[C@H](OC(C)=O)[C@@H]1C [Rifapen tine] | 9 | 13 | 
CO[C@H]1/C=C/O[C@@]2(C)Oc3c(C)c(O)c4c(O)c(c5c(nc6cc(C)ccn65)c4c3C2=O)NC(=O)/C(C)=C\C=C\[C@H](C)[C@H](O)[C@@H](C)[C@@H](O)[C@@H](C)[C@H](OC(C)=O)[C@@H]1C [Rifaximin] | 7 | 1 | 
Cc1cc(/C=C/C#N)cc(C)c1Nc1ccnc(Nc2ccc(C#N)cc2)n1 [Rilpivirine] | 32 | 20 | 
CC(C)c1nc(CN(C)C(=O)N[C@H](C(=O)N[C@@H](Cc2ccccc2)C[C@H](O)[C@H](Cc2ccccc2)NC(=O)OCc2cncs2)C(C)C)cs1 [Ritonavir] | 2 | 0 | 
O=c1c(O)c(-c2cc(O)c(O)c(O)c2)oc2cc(O)ccc12 [Robinetin] | 39 | 7 | 
CC1OC(OCC2OC(Oc3c(-c4ccc(O)cc4)oc4cc(OC5OC(C)C(O)C(O)C5O)cc(O)c4c3=O)C(O)C(O)C2O)C(O)C(O)C1O (centres unmarked) [Robinin] | 31 | 8 | 
COc1c2ccoc2nc2c(O)cccc12 [Robustine] | 16 | 7 | 
CN1CCc2cc3c(c4c2C1Cc1ccccc1-4)OCO3 (centres unmarked) [Roemerine] | 0 | 0 | 
Cn1c([N+](=O)[O-])cnc1COC(N)=O [Ronidazole] | 9 | 0 | 
C[C@@H]1CC[C@]2(C(=O)O)CC[C@]3(C)C(=CC[C@@H]4[C@@]5(C)CC[C@H](O)[C@@](C)(CO)[C@@H]5CC[C@]43C)[C@@H]2[C@]1(C)O [Rotundic acid] | 24 | 45 | 
CC[C@H]1OC(=O)[C@H](C)[C@@H](O[C@H]2C[C@@](C)(OC)[C@@H](O)[C@H](C)O2)[C@H](C)[C@@H](O[C@@H]2O[C@H](C)C[C@H](N(C)C)[C@H]2O)[C@](C)(O)C[C@@H](C)/C(=N\OCOCCOC)[C@H](C)[C@@H](O)[C@]1(C)O [Roxithromycin] | 22 | 4 | 
CC[C@@]1(O)C(=O)OCc2c1cc1n(c2=O)Cc2cc3c([N+](=O)[O-])cccc3nc2-1 [Rubitecan] | 5 | 0 | 

Source: paper PMC11855827, “High-Throughput Screening of Five Compound Libraries for Anthelmintic Activity and Toxicity Leads to the Discovery of Two Flavonoid Compounds” (International Journal of Molecular Sciences, 2025)
